Reference: ChEMBL document CHEMBL4725222, “Advances in the Development of Phosphodiesterase-4 Inhibitors” (J Med Chem, 2020)
Each block holds one molecule with its values, some of them ahead of it.

Experiments:
[1] = target: T1, 3',5'-cyclic-AMP phosphodiesterase 4B (Homo sapiens, UniProt Q07343); experiment: Inhibition of recombinant human PDE4B expressed in Sf9 cells by IMAP phosphodiesterase assay
[2] = target: T2, Phosphodiesterase 4 (Homo sapiens, UniProt P27815+Q08499+Q07343+Q08493); experiment: Inhibition of PDE4 (unknown origin) expressed in Saccharomyces cerevisiae using [3H] cAMP as substrate incubated for 1 hr by scintillation proximity assay
[3] = target: T3, 3',5'-cyclic-AMP phosphodiesterase 4D (Homo sapiens, UniProt Q08499); experiment: Inhibition of PDE4D3 (unknown origin)
[4] = target: T1, 3',5'-cyclic-AMP phosphodiesterase 4B; experiment: Inhibition of PDE4B (unknown origin)
[5] = target: T3, 3',5'-cyclic-AMP phosphodiesterase 4D; experiment: Inhibition of PDE4D (unknown origin)
[6] = target: T4, 3',5'-cyclic-AMP phosphodiesterase 4A (Homo sapiens, UniProt P27815); experiment: Inhibition of PDE4A (unknown origin)
[7] = target: T2, Phosphodiesterase 4; experiment: Inhibition of PDE4 (unknown origin); assay type: protein assay
[8] = target: T2, Phosphodiesterase 4; experiment: Inhibition of human U937 cell derived PDE4 using [3H]cAMP as substrate incubated for 60 mins by Scintillation proximity assay; assay type: protein assay
[9] = Inhibition of recombinant human His-tagged PDE7 expressed in baculovirus infected in sf9 cells incubated for 60 mins by Scintillation counting method
[10] = target: T1, 3',5'-cyclic-AMP phosphodiesterase 4B; experiment: Inhibition of recombinant human PDE4B2 preincubated for 30 mins followed by [3H]cyclic AMP addition and measured after 20 mins by radiometric assay
[11] = target: T3, 3',5'-cyclic-AMP phosphodiesterase 4D; experiment: Inhibition of human PDE4D2 catalytic domain (86 to 413 residues) expressed in Escherichia coli BL21 cells using 3H-cGMP or 3H-cAMP as substrate by liquid scintillation counting method
[12] = target: T1, 3',5'-cyclic-AMP phosphodiesterase 4B; experiment: Inhibition of N-terminal GST tagged full length human PDE4B2 expressed in baculovirus infected Sf9 cell expression system using cAMP as substrate incubated for 60 mins by time-resolved fluorescence competitive immunoassay
[13] = target: 3',5'-cyclic-AMP phosphodiesterase 4C (Homo sapiens, UniProt Q08493); experiment: Inhibition of N-terminal GST tagged full length human PDE4C1 expressed in baculovirus infected Sf9 cell expression system using cAMP as substrate incubated for 60 mins by time-resolved fluorescence competitive immunoassay
[14] = target: T1, 3',5'-cyclic-AMP phosphodiesterase 4B; experiment: Inhibition of PDE4B (unknown origin) at 2 uM relative to control
[15] = target: T5, High affinity 3',5'-cyclic-AMP phosphodiesterase 7A (Homo sapiens, UniProt Q13946); experiment: Inhibition of human PDE7A at 2 uM relative to control
[16] = target: T3, 3',5'-cyclic-AMP phosphodiesterase 4D; experiment: Inhibition of PDE4D (unknown origin) at 2 uM relative to control
[17] = target: T4, 3',5'-cyclic-AMP phosphodiesterase 4A; experiment: Inhibition of PDE4A (unknown origin) at 2 uM relative to control
[18] = target: T1, 3',5'-cyclic-AMP phosphodiesterase 4B; experiment: Inhibition of recombinant human PDE4B2 using cAMP as substrate preincubated for 5 mins followed by substrate addition and measured after 60 mins by luminescence method
[19] = Inhibition of guinea-pig platelet derived PDE3; set-up: species or system Cavia porcellus
[20] = Inhibition of guinea-pig neutrophil derived PDE4; set-up: species or system Cavia porcellus
[21] = target: T2, Phosphodiesterase 4; experiment: Inhibition of human U937 cell derived PDE4 preincubated for 15 mins followed by […] and cAMP addition and measured after 20 mins by liquid scintillation counter; assay type: protein assay
[22] = Inhibition of PDE4B2B (152 to 528 residues) (unknown origin) by liquid scintillation counting method; set-up: species or system Homo sapiens
[23] = target: Muscarinic acetylcholine receptor M3 (Homo sapiens, UniProt P20309); experiment: Displacement of [3H]N -methylscopolamine from human muscarinic M3 receptor expressed in CHO-K1 cells incubated for 90 mins by scintillation counting method; assay type: cell-based
[24] = target: T2, Phosphodiesterase 4; experiment: Inhibition of PDE4 in human U937 cell lysate using cAMP as substrate by LANCE assay; assay type: subcellular; conditions: u-937
[25] = target: T1, 3',5'-cyclic-AMP phosphodiesterase 4B; experiment: Inhibition of human PDE4B2 expressed in HEK293 cells using cAMP as substrate incubated for 45 to 60 mins by ELISA
[26] = target: T5, High affinity 3',5'-cyclic-AMP phosphodiesterase 7A; experiment: Inhibition of human PDE7A expressed in HEK293 cells using cAMP as substrate incubated for 60 mins by ELISA
[27] = target: T2, Phosphodiesterase 4; experiment: Inhibition of human neutrophil derived PDE4; assay type: protein assay
[28] = Inhibition of human platelet derived PDE3

T1 sequence (Q07343 whole entry): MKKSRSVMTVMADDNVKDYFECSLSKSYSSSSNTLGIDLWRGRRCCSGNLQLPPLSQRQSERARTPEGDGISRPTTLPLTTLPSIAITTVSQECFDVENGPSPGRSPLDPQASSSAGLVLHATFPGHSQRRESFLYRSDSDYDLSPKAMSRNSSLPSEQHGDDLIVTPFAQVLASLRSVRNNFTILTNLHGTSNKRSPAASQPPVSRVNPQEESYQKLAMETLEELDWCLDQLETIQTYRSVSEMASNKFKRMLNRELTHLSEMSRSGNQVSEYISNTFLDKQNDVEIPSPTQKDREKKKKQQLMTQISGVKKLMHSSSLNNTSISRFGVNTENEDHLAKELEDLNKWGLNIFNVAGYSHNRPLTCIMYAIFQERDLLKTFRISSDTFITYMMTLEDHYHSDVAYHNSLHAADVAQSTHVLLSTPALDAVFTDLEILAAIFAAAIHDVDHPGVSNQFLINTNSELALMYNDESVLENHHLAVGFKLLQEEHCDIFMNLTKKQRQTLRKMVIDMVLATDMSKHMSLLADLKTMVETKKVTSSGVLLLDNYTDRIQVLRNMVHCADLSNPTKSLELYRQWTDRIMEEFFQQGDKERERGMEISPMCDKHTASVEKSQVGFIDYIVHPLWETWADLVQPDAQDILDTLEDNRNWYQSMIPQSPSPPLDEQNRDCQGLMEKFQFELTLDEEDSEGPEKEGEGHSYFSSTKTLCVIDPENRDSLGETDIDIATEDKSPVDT
T3 sequence (Q08499 whole entry): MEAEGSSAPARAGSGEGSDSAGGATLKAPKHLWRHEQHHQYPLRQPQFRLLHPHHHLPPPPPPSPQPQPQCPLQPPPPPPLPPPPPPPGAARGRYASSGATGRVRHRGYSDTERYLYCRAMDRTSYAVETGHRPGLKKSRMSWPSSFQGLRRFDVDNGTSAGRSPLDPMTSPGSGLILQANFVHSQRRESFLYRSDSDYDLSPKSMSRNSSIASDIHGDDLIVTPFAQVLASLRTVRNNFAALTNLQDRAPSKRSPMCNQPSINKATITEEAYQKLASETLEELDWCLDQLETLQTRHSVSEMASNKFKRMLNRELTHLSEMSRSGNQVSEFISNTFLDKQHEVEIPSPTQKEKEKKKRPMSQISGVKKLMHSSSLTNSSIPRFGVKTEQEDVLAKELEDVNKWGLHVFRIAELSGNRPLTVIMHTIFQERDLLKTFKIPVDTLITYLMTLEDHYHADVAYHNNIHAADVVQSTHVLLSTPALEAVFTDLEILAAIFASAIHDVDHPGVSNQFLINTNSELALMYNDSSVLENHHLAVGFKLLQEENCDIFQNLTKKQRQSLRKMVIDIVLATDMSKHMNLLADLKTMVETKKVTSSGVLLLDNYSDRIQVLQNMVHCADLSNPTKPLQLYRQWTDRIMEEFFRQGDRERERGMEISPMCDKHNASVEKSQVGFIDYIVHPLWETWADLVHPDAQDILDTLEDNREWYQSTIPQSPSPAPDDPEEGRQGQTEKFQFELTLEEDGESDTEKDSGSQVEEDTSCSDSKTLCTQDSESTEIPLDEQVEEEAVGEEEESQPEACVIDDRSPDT
T4 sequence (P27815 whole entry): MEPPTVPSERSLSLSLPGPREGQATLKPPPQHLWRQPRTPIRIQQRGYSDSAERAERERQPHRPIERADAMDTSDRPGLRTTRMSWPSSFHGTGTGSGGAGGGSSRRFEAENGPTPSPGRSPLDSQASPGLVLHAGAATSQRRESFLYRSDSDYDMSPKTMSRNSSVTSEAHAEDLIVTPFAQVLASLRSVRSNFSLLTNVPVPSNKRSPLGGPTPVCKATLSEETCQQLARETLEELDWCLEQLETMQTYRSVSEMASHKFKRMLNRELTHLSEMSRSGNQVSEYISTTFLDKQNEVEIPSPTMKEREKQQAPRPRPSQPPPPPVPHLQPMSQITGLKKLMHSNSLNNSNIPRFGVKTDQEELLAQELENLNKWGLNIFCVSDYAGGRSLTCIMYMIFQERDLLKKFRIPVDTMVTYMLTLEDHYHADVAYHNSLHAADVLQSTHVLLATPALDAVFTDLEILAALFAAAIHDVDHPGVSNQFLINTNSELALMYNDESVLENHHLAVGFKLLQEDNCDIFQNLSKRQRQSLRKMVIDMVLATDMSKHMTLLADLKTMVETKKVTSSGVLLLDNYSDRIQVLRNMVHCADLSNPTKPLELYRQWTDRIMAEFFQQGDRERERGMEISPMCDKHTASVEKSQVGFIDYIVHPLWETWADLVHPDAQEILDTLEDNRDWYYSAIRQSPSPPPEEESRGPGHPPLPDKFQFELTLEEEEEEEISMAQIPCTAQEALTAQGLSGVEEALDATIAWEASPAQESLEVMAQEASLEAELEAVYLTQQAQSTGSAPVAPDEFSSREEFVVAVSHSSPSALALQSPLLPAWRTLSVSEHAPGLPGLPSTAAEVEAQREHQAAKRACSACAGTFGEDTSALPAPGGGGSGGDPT
T5 sequence (Q13946 whole entry): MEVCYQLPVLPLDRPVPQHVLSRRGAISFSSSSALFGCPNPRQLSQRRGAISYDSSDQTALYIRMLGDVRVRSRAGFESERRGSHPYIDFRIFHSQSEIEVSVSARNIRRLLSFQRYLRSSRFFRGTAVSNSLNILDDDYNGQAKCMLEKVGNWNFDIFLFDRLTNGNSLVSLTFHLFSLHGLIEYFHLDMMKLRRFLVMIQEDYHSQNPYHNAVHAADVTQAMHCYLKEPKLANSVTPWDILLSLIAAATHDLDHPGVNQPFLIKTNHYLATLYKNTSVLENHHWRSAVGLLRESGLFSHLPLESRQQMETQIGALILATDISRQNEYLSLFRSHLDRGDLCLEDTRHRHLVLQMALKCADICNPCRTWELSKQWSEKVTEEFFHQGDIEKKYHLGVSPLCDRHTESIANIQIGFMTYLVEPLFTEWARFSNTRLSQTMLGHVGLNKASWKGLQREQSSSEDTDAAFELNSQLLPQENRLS
3',5'-cyclic-AMP phosphodiesterase 4C, sequence (Q08493 whole entry): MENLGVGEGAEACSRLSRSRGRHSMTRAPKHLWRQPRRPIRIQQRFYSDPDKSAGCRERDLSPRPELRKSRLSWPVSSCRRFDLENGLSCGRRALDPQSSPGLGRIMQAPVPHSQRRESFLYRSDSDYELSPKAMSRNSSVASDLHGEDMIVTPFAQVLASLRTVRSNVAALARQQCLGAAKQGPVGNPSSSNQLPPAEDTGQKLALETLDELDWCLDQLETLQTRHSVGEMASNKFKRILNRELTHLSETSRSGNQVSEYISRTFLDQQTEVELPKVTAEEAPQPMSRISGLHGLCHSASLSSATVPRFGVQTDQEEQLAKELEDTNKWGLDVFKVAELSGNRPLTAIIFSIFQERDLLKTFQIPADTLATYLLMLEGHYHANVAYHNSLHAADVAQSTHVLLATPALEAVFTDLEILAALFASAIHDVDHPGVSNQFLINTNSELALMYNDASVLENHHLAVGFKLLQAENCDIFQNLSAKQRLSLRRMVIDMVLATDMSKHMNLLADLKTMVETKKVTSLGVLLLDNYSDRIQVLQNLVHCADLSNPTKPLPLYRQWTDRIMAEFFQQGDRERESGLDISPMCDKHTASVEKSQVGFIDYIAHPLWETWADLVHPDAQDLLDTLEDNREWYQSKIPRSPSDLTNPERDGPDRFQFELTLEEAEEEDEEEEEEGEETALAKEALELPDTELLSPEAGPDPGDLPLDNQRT
Muscarinic acetylcholine receptor M3, sequence (P20309 whole entry): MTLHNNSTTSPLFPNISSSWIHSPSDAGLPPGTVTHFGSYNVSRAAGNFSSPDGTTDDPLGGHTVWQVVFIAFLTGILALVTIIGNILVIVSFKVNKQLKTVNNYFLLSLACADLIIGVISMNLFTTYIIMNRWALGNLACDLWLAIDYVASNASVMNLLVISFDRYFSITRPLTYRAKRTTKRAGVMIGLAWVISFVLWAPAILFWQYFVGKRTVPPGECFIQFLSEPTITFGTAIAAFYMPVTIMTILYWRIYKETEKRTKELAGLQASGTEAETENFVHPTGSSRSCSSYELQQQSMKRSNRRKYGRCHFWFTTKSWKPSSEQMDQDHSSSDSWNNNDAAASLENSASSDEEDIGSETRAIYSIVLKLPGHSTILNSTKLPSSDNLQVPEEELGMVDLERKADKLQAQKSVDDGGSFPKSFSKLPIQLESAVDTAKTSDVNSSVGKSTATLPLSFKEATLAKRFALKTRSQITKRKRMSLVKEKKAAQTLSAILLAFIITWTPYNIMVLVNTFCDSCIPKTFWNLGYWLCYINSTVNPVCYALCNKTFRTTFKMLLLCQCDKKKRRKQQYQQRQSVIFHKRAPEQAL

Compound: COc1ccc(C2=NN(CCCCCc3ccccc3)C(=O)CC2)cc1OC
- IC50 [1]: 0.9 nM

Compound: CCNC(=O)c1cc(C(=O)NCCCN(C)C)cc(-c2cc(NC(=O)Nc3c(Cl)cncc3Cl)c(=O)n(CC)n2)c1
- IC50 [2]: 0.05 nM

Compound: COc1ccc([C@H]2CNC(=O)[C@H](Cc3cccc(C)c3)C2)cc1OC1CCCC1 [HT-0712]
- IC50 [3]: 150 nM

Compound: O=C(NC1CC1)c1cn(-c2cccc(-c3ccc([C@@H]4C[C@H]4C(=O)O)c(F)c3)c2)c2ncccc2c1=O
- IC50 [7]: 0.6 nM

Compound: O=C(N[C@H]1CC[C@@H](C2C(=O)c3cc(F)cnc3N(C3CCSCC3)C2=O)CC1)c1cn2cc(F)ccc2n1 (some centres undefined)
- IC50 [10]: 0.126 nM

Compound: COc1ccc([C@@]2(c3cccc(OC)c3)c3cc(O)ccc3-c3ccc(C=O)c(C#Cc4ccc(O)cc4)c32)cc1
- IC50 [11]: 11 nM

Compound: CCOc1cc([C@H](CS(C)(=O)=O)N2C(=O)c3cccc(NC(=O)OCCOCCOCCOCCOCCOCCOCCOC)c3C2=O)ccc1OC
- IC50 [12]: 3 nM
- IC50 [13]: 3 nM

Compound: CCOc1cc([C@H](CS(C)(=O)=O)N2C(=O)c3cccc(NC(=O)OCCOCCOCCOCCOCCOC)c3C2=O)ccc1OC
- IC50 [12]: 3 nM
- IC50 [13]: 3 nM

Compound: Cc1c(C(=O)Nc2ccc(F)cc2F)sc2ncnc(N3CCN(C)CC3)c12
- inhibition [14]: 64%
- inhibition [15]: 98%
- inhibition [16]: 64%
- inhibition [17]: 64%

Compound: CCOC(=O)c1cnc2c(cnn2CC)c1NN=C(C)C [ETAZOLATE]
- IC50 [3]: 390 nM

Compound: COc1cc2c(cc1OC)[C@@H]1CN(C)CC[C@@H]1N=C2c1ccc(NC(C)=O)cc1 [BENAFENTRINE]
- IC50 [19]: 1740 nM
- IC50 [20]: 1760 nM

Compound: COc1ccc(-c2ccc3nc(N)nc(N4CCN(C(=O)Nc5ccc(Cl)cc5)CC4)c3n2)cc1OC
- IC50 [21]: 0.4 nM

Compound: O=C(O[C@@H](Cc1c(Cl)c[n+]([O-])cc1Cl)c1ccc(OC(F)F)c(OCC2CC2)c1)C1CN(C(=O)c2ccc(COc3cccc(CN(C(=O)O[C@H]4CN5CCC4CC5)c4ccccc4)c3)cc2)C1
- IC50 [23]: 100 nM
- IC50 [24]: 100 nM

Compound: CCOc1cc2c(cc1OC)C(c1ccc(C(=O)N(C(C)C)C(C)C)cc1)=N[C@@H]1CCN(C)C[C@H]21 [PUMAFENTRINE]
- IC50 [27]: 7 nM
- IC50 [28]: 28 nM

Next, values leading:

- IC50 [4]: 0.38 nM
- IC50 [5]: 0.38 nM
- IC50 [6]: 0.38 nM
Compound: Cc1ccc(O)c(C(=O)N[C@H]2CC[C@@H](NC(=O)c3cc(F)cnc3Oc3ccc(F)c(F)c3)CC2)c1 [UK-500001]

- IC50 [8]: 2900 nM
- IC50 [9]: 1400 nM
Compound: CCOc1ccc(-c2c(C(C)(C)O)oc(=O)c3ccccc23)cc1OC1CCCC1

- IC50 [10]: 0.01 nM
Compound: Cn1nc(C(=O)NC2CCC(NC(=O)c3cc(F)cnc3Oc3cccc(-c4ccc(CCCN5CCNCC5)cc4)c3)CC2)cc1C(F)(F)F (centres undefined)

- IC50 [18]: 5 nM
Compound: COc1cccc(Nc2c(C(N)=O)ccc3c(C)cc(S(=O)(=O)c4cccc(C(=O)Nc5ccc(C#CCCCNC[C@@H](O)c6ccc(O)c7[nH]c(=O)ccc67)cc5)c4)cc23)c1

- IC50 [7]: 74 nM
Compound: CCOc1ccc(-c2nc(-c3cccc(C(=O)O)n3)cs2)cc1OCC [TETOMILAST]

- IC50 [22]: 20 nM
Compound: CC(C)CC(=O)c1ccc(OC(F)F)c(OC2CCOC2)c1 (centres undefined)

- IC50 [25]: 5 nM
- IC50 [26]: 55 nM
Compound: CCc1nc2c(cnn2CC)c(NC2CCCCC2)c1C1=NOC2(C1)CC(C1N=NN=N1)C2 (centres undefined)

- IC50 [7]: 3 nM
Compound: O=C(Nc1c(Cl)c[n+]([O-])cc1Cl)c1ccc(OC(F)F)c2oc3ccncc3c12
